Here are results for 22 compounds from patent US10689378B2, “Triazolopyridine compounds and uses thereof” (Novartis AG, priority 2016, dated 2020).

Assay [1] has as its target wild type PRC2 (wtPRC2) complex (Homo sapiens, UniProt O75530). The assay can be described thus: EED LC-MS assay (SAH production by PRC2). The assay is classed as biochemical. Conditions: read-out: (b) IC50 EED LC-MS Qualified. The procedure, abridged: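 LC-MS/MS readout of SAH (d4-SAH standard) after TFA quench gives PRC2 activity, normalized to controls and fitted to dose-response for IC50. Reaction: 12 nM EZH2/SUZ12/EED/Rbap48/AEBP complex, 1 μM SAM, 1.5 μM H3[21-44] peptide, 120 min rt, 20 min compound preincubation.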

A further assay addresses T1, EED (1-441)-His protein (Homo sapiens, UniProt O75530).
T1 construct: 30 nM EED (1-441)-His protein
The assay can be described thus: EED-H3K27Me3 peptide competition binding assay by AlphaScreen. The following applies: read-out: (a) IC50 EED Alphascreen binding Qualified. A digest of the protocol: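 Serially diluted compound (12 points, 3-fold) incubated 20 min with 30 nM EED(1-441)-His and 15 nM biotin-H3K27Me3(19-33) peptide in 25 mM HEPES pH 8, 0.02% Tween-20, 0.5% BSA. Ni-chelate acceptor/streptavidin donor beads (10 μg/mL each) added, 1 h rt dark; 615 nm emission normalized to controls, dose-response fit for IC50.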
On the technique in general: Alpha assays give light when donor and acceptor beads are brought close together.

The test system of assay [2] is H3K27 methylation in G401 cell. The assay can be described thus: ELISA (H3K27 methylation) assay in G401 cells. The class given is cell-based, human. The following applies: Homo sapiens, G-401, read-out: (c) IC50 ELISA Qualified. A digest of the protocol: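 IC50 from dose-response fit of percent inhibition relative to DMSO, using H3K27me3/me2 ELISA signal (ECL) normalized to histone H3. Histones HCl-extracted after 48 h compound exposure of G401 cells at up to 20 μM, 8- or 12-point 3-fold series.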
Background: In an ELISA, binding on a coated surface is turned into a signal by an enzyme label.

pIC50: −log10 of the molar value.

T1 sequence (O75530 whole entry): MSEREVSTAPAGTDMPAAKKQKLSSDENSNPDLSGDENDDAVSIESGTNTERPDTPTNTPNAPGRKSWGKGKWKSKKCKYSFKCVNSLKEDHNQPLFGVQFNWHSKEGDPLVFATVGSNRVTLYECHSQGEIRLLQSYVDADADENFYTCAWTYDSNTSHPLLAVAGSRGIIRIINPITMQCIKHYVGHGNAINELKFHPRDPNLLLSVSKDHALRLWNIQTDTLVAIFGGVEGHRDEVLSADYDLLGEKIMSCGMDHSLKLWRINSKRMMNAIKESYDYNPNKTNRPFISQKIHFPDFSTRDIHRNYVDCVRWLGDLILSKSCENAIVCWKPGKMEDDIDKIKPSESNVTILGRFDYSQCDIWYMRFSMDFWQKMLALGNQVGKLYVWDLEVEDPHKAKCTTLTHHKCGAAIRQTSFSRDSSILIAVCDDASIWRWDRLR
wild type PRC2 (wtPRC2) complex, sequence (O75530 whole entry): as above
wild type PRC2 (wtPRC2) complex, sequence (Q15910 whole entry partner): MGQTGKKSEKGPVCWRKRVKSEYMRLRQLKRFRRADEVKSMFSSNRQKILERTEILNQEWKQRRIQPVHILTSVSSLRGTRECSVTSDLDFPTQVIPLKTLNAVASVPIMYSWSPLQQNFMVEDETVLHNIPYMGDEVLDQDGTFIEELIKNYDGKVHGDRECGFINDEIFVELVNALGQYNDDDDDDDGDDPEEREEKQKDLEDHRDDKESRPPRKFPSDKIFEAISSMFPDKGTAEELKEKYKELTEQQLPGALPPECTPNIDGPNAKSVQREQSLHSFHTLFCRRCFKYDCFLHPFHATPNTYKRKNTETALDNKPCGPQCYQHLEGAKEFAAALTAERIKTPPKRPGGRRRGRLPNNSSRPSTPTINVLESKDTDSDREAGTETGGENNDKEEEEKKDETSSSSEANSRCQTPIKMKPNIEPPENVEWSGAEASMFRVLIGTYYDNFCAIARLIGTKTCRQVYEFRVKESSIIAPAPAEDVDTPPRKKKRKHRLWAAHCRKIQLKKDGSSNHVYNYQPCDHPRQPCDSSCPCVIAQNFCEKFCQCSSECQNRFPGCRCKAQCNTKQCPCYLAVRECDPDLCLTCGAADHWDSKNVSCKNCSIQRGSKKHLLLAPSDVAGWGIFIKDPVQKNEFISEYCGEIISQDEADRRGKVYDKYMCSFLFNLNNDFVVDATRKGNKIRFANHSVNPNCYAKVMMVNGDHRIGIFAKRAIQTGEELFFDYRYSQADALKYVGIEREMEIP
wild type PRC2 (wtPRC2) complex, sequence (Q15022 whole entry partner): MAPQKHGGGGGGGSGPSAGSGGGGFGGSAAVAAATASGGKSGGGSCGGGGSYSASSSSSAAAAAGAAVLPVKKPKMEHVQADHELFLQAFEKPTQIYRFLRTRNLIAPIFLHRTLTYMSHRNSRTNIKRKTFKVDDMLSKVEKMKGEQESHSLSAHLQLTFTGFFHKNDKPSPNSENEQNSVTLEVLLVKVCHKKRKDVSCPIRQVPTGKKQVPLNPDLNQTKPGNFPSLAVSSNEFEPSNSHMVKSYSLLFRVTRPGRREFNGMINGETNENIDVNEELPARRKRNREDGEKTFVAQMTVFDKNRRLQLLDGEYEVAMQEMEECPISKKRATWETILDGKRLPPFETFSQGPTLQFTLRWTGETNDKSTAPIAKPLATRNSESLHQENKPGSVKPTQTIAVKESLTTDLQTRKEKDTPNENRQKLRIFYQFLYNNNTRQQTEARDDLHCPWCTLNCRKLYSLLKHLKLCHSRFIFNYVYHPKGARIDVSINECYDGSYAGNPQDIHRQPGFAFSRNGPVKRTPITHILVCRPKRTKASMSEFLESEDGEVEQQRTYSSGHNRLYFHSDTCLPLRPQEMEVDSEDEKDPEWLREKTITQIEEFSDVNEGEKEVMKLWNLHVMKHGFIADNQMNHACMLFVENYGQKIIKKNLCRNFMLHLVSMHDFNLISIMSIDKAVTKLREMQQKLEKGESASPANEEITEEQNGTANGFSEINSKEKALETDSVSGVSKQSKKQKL
wild type PRC2 (wtPRC2) complex, sequence (Q09028 whole entry partner): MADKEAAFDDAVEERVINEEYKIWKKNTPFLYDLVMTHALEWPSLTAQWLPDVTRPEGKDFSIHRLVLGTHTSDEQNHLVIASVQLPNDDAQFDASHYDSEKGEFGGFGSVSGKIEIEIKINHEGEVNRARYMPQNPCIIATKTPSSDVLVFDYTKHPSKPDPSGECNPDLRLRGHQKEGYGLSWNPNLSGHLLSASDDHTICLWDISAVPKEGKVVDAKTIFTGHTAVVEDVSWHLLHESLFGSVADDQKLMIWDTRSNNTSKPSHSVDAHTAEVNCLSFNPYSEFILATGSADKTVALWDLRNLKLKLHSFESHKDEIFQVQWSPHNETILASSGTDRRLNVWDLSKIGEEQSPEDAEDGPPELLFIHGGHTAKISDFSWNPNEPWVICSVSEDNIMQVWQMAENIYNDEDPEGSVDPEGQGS
wild type PRC2 (wtPRC2) complex, sequence (Q6ZN18 whole entry partner): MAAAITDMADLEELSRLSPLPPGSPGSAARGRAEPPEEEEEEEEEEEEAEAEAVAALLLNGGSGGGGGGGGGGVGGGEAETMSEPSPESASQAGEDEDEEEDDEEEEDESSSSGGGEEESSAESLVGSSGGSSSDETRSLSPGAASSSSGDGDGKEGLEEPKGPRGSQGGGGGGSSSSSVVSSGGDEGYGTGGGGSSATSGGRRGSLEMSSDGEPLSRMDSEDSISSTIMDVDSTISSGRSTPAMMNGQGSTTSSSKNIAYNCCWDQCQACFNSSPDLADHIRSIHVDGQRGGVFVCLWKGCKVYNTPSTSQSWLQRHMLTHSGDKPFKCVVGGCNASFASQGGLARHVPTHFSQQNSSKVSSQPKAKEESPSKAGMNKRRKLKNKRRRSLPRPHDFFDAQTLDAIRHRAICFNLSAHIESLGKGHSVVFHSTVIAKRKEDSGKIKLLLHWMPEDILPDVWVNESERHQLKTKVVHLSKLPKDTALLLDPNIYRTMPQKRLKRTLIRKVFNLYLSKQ

`COc1cc(F)cc(F)c1CNc1ccc(-c2cnc(OC(C)C)nc2C)c2nncn12` [Example 349, N-(2,4-difluoro-6-methoxybenzyl)-8-(2-isopropoxy-4-methylpyrimidin-5-yl)-[1,2,4]triazolo[4,3-a]pyridin-5-amine]: the pIC50 (in general, the IC50 on a negative log10 scale, so that one unit is a factor of ten) in assay [1] is 6.54; on EED (1-441)-His protein, 7.64; in assay [2], 7.51.
The matching figures for `COc1cccc(F)c1CNc1ccc(-c2cc(C#N)cnc2C)c2nncn12` [Example 350, 5-(5-((2-fluoro-6-methoxybenzyl)amino)-[1,2,4]triazolo[4,3-a]pyridin-8-yl)-6-methylnicotinonitrile]: 7.34, 7.49 and 7.79.
For the compound `COc1cccc(F)c1CNc1ccc(-c2ccc(C(C)C)nc2C)c2nncn12` [Example 351, N-(2-fluoro-6-methoxybenzyl)-8-(6-isopropyl-2-methylpyridin-3-yl)-[1,2,4]triazolo[4,3-a]pyridin-5-amine], the pIC50 was 7.64 in assay [1], 7.63 on EED (1-441)-His protein and 7.81 in assay [2].
Regarding `COc1cccc(F)c1CNc1ccc(-c2cnc(C(C)C)cc2C)c2nncn12` [Example 352, N-(2-fluoro-6-methoxybenzyl)-8-(6-isopropyl-4-methylpyridin-3-yl)-[1,2,4] triazolo[4,3-a]pyridin-5-amine], the figures for the pIC50 (in assay [1]; at EED (1-441)-His protein; in assay [2]) were 6.98, 7.53 and 7.49, respectively.
The matching figures for `COc1cccc(F)c1CNc1ccc(-n2cc(C)cn2)c2nncn12` [Example 353, N-(2-fluoro-6-methoxybenzyl)-8-(4-methyl-1H-pyrazol-1-yl)-[1,2,4]triazolo [4,3-a]pyridin-5-amine]: 6.81, 7.59 and 7.41.
The matching figures for `COc1cccc(F)c1CNc1ccc(-n2cnc(C)c2)c2nncn12` [Example 354, N-(2-fluoro-6-methoxybenzyl)-8-(4-methyl-1H-imidazol-1-yl)-[1,2,4]triazolo [4,3-a]pyridin-5-amine]: 7.22, 7.58 and 7.67.
Turning to `COc1cccc(F)c1CNc1ccc(-c2nc(C)nn2C)c2nncn12` [Example 355, 8-(1,3-dimethyl-1H-1,2,4-triazol-5-yl)-N-(2-fluoro-6-methoxybenzyl)-[1,2,4] triazolo[4,3-a]pyridin-5-amine], the pIC50 in assay [1] was 7.52; on EED (1-441)-His protein, 7.80; in assay [2] it was 7.93.
For `COc1cccc(F)c1CNc1ccc(-c2ncnn2C)c2nncn12` [Example 356, N-(2-fluoro-6-methoxybenzyl)-8-(1-methyl-1H-1,2,4-triazol-5-yl)-[1,2,4] triazolo[4,3-a]pyridin-5-amine], the results for the pIC50 (in assay [1]; on EED (1-441)-His protein; in assay [2]) were 6.93, 7.72 and 7.85, respectively.
Take `COc1cccc(F)c1CNc1ccc(-n2cccn2)c2nncn12` [Example 357, N-(2-fluoro-6-methoxybenzyl)-8-(1H-pyrazol-1-yl)-[1,2,4]triazolo[4,3-a]pyridin-5-amine]: the pIC50 was 6.84 in assay [1], 7.59 at EED (1-441)-His protein and 7.41 in assay [2].
The matching figures for `COc1cccc(F)c1CNc1ccc(-n2cncn2)c2nncn12` [Example 358, N-(2-fluoro-6-methoxybenzyl)-8-(1H-1,2,4-triazol-1-yl)-[1,2,4]triazolo[4,3-a] pyridin-5-amine]: 6.54, 7.77 and 7.71.
As to `COc1cccc(F)c1CNc1ccc(-n2ccc(C)n2)c2nncn12` [Example 359, N-(2-fluoro-6-methoxybenzyl)-8-(3-methyl-1H-pyrazol-1-yl)-[1,2,4]triazolo [4,3-a]pyridin-5-amine], the pIC50 is 6.56 in assay [1], 7.37 on EED (1-441)-His protein and 7.26 in assay [2].
Take `COc1cccc(F)c1CNc1ccc(-n2ccnn2)c2nncn12` [Example 361, N-(2-fluoro-6-methoxybenzyl)-8-(1H-1,2,3-triazol-1-yl)-[1,2,4]triazolo[4,3-a] pyridin-5-amine]: the pIC50 in assay [1] was 7.16; at EED (1-441)-His protein it was 7.82; in assay [2], 7.68.
For the compound `COc1cccc(F)c1CNc1ccc(-n2ccnc2C)c2nncn12` [Example 362, N-(2-fluoro-6-methoxybenzyl)-8-(2-methyl-1H-imidazol-1-yl)-[1,2,4]triazolo [4,3-a]pyridin-5-amine], the pIC50 was 7.48 in assay [1], 7.40 at EED (1-441)-His protein and 7.77 in assay [2].
With `COc1cccc(F)c1CNc1ccc(-n2ccnc2)c2nncn12` [Example 363, N-(2-fluoro-6-methoxybenzyl)-8-(1H-imidazol-1-yl)-[1,2,4]triazolo[4,3-a] pyridin-5-amine], the figures for the pIC50 (in assay [1]; at EED (1-441)-His protein; in assay [2]) were 7.26, 7.60 and 7.71, respectively.
`COc1cccc(F)c1CNc1ccc(-c2cnc(C)n2C)c2nncn12` [Example 366, 8-(1,2-dimethyl-1H-imidazol-5-yl)-N-(2-fluoro-6-methoxybenzyl)-[1,2,4]triazolo[4,3-a]pyridin-5-amine]: the figures for the negative logarithm of the IC50 (pIC50) (in assay [1]; at EED (1-441)-His protein; in assay [2]) were 7.34, 7.88 and 8.47, respectively.
As for `COc1cccc(F)c1CNc1ccc(-n2cc(C)c(C)n2)c2nncn12` [Example 367, 8-(3,4-dimethyl-1H-pyrazol-1-yl)-N-(2-fluoro-6-methoxybenzyl)-[1,2,4]triazolo[4,3-a] pyridin-5-amine], the pIC50 in assay [1] was 6.95; at EED (1-441)-His protein, 7.63; in assay [2], 7.54.
As to `COc1cccc(F)c1CNc1ccc(-c2ccc(NC(=O)N(C)C)nc2C)c2nncn12` [Example 368, 3-(5-(5-((2-fluoro-6-methoxybenzyl)amino)-[1,2,4]triazolo[4,3-a]pyridin-8-yl)-6-methylpyridin-2-yl)-1,1-dimethylurea], the values for the pIC50 (in assay [1]; at EED (1-441)-His protein; in assay [2]) were 7.15, 7.93 and 8.19, respectively.
Take `COc1cccc(F)c1CNc1ccc(-c2ccc(C(C)(C)C#N)nc2C)c2nncn12` [Example 369, 2-(5-(5-((2-fluoro-6-methoxybenzyl)amino)-[1,2,4]triazolo[4,3-a]pyridin-8-yl)-6-methylpyridin-2-yl)-2-methylpropanenitrile]: the figures for the pIC50 (in assay [1]; at EED (1-441)-His protein; in assay [2]) were 6.69, 8.28 and 8.54, respectively.
The matching figures for `COc1cccc(F)c1CNc1ccc(-c2c(C)cnn2C)c2nncn12` [Example 370, 8-(1,4-dimethyl-1H-pyrazol-5-yl)-N-(2-fluoro-6-methoxybenzyl)-[1,2,4]triazolo[4,3-a] pyridin-5-amine]: 6.97, 7.59 and 7.70.
With `COc1cccc(F)c1CNc1ccc(-c2cnc(C)nc2OC)c2nncn12` [Example 372, N-(2-fluoro-6-methoxybenzyl)-8-(4-methoxy-2-methylpyrimidin-5-yl)-[1,2,4]triazolo[4,3-a]pyridin-5-amine], the values for the pIC50 (in assay [1]; at EED (1-441)-His protein; in assay [2]) were 6.93, 7.68 and 7.47, respectively.
Take `COc1cc(F)cc(F)c1CNc1ccc(-c2cnc(C)nc2OC)c2nncn12` [Example 373, N-(2,4-difluoro-6-methoxybenzyl)-8-(4-methoxy-2-methylpyrimidin-5-yl)-[1,2,4] triazolo[4,3-a]pyridin-5-amine]: the values for the pIC50 (in assay [1]; at EED (1-441)-His protein; in assay [2]) were 6.31, 7.31 and 7.19, respectively.
On the same counts, the results for `COc1ncccc1CNc1ccc(-c2ccc(CN(C)C)cc2)c2nncn12` [Example 374, 8-(4-((dimethylamino)methyl)phenyl)-N-((2-methoxypyridin-3-yl)methyl)-[1,2,4]triazolo[4,3-a] pyridin-5-amine] are 6.84, 7.23 and 7.33.
